Data: EP2508526A1, “Spiroalkene carboxamide derivatives and their use as chemokine receptor modulators” (Ares Trading SA, priority 2011, dated 2012)
Counter-ions that a name gives are not always drawn.

molecular target: T1, hCCR2b (Homo sapiens, UniProt P41597); assay: CCR2 binding assay ([125I]MCP-1, SPA, CHO cell membranes); set-up: expressed in transfected cells; host or cells: CHO cells (membrane preparation); settings: membranes from CHO cells expressing hCCR2b, 50 pM [125I]MCP-1; read-out: Binding hCCR2 (Ki)
T1 sequence (P41597 1-360 isoform P41597-2): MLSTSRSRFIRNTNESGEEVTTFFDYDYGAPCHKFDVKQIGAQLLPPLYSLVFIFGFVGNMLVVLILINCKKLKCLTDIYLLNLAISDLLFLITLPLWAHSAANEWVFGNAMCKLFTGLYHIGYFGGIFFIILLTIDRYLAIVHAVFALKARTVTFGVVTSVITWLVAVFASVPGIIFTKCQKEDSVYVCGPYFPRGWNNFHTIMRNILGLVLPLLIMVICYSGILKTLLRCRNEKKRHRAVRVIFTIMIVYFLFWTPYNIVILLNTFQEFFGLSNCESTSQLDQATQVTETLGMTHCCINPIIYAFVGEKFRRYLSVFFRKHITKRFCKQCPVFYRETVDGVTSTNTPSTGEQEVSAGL
How it was run: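 CHO membranes expressing hCCR2b (1–5 µg/well) with 50 pM [125I]MCP-1 and WGA SPA beads in 50 mM HEPES pH 7.4, 5 mM MgCl2, 1 mM CaCl2, 0.1% BSA, 1% DMSO; 90 min RT with agitation. Bound counts on scintillation counter; nonspecific defined by 1000-fold excess unlabeled compound.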

Structure (SMILES)	Ki
CCN1CCCC2(CC1)OC(=O)C(C)=C2C(=O)N1CCN(c2cccc(C(F)(F)F)c2)CC1 (centres unmarked) [Compound 121, 8-ethyl-3-methyl-4-({4-[3-(trifluoromethyl)phenyl]piperazin-1-yl}carbonyl)-1-oxa-8-azaspiro[4.6]undec-3-en-2-one]	< 0.05 µM
CCN1CCC2(CC1)OC(=O)C(C)=C2C(=O)N1CCN(c2cccc(C(F)(F)F)c2)CC1C (centres unmarked) [Compound 84, 8-ethyl-3-methyl-4-({2-methyl-4-[3-(trifluoromethyl)phenyl]piperazin-1-yl}carbonyl)-1-oxa-8-azaspiro[4.5]dec-3-en-2-one]	< 0.05 µM
CC1=C(C(=O)N2CCc3ncc(C(F)(F)F)cc3C2)C2(CCN(C3CCC(O)CC3)CC2)OC1=O (centres unmarked) [Compound 45, 8-(4-hydroxycyclohexyl)-3-methyl-4-{[3-(trifluoromethyl)-7,8-dihydro-1,6-naphthyridin-6(5H)-yl]carbonyl}-1-oxa-8-azaspiro[4.5]dec-3-en-2-one]	< 0.05 µM
CC1=C(C(=O)N2CCc3ncc(C(F)(F)F)cc3C2)C2(CCN(C(C)C)CC2)OC1=O [Compound 115, 8-isopropyl-3-methyl-4-{[3-(trifluoromethyl)-7,8-dihydro-1,6-naphthyridin-6(5H)-yl]carbonyl}-1-oxa-8-azaspiro[4.5]dec-3-en-2-one]	< 0.05 µM
CC1=C(C(=O)N2CCc3ccc(C(F)(F)F)cc3C2)C2(CCN(C3COC3)CC2)OC1=O [Compound 32, 3-methyl-8-oxetan-3-yl-4-{[7-(trifluoromethyl)-3,4-dihydroisoquinolin-2(1H)-yl]carbonyl}-1-oxa-8-azaspiro[4.5]dec-3-en-2-one]	0.05 to 0.1 µM
CCN1CCC2(CC1)OC(=O)C(C)=C2C(=O)N1CCN(c2cncc(C(F)(F)F)c2)CC1 [Compound 60, 8-ethyl-3-methyl-4-({4-[5-(trifluoromethyl)pyridin-3-yl]piperazin-1-yl}carbonyl)-1-oxa-8-azaspiro[4.5]dec-3-en-2-one]	0.05 to 0.1 µM
CC1=C(C(=O)N2CCc3ccc(C(F)(F)F)cc3C2)C2(CCN(CCF)CC2)OC1=O [Compound 17, 8-(2-fluoroethyl)-3-methyl-4-{[7-(trifluoromethyl)-3,4-dihydroisoquinolin-2(1H)-yl]carbonyl}-1-oxa-8-azaspiro[4.5]dec-3-en-2-one]	< 0.05 µM
CCN1CCC2(CC1)OC(=O)C(C)=C2C(=O)N1CCN(c2cc(Cl)cc(C(F)(F)F)c2)CC1 [Compound 86, 4-({4-[3-chloro-5-(trifluoromethyl)phenyl]piperazin-1-yl}carbonyl)-8-ethyl-3-methyl-1-oxa-8-azaspiro[4.5]dec-3-en-2-one]	< 0.05 µM
CC1=C(C(=O)N2CCc3ncc(C(F)(F)F)cc3C2)C2(CCN(C3CCOCC3)CC2)OC1=O [Compound 119, 3-methyl-8-(tetrahydro-2H-pyran-4-yl)-4-{[3-(trifluoromethyl)-7,8-dihydro-1,6-naphthyridin-6(5H)-yl]carbonyl}-1-oxa-8-azaspiro[4.5]dec-3-en-2-one]	< 0.05 µM
CC1=C(C(=O)N2CCN(c3cccc(C(F)(F)F)c3)CC2)C2(CCN(CCc3ccccc3)CC2)OC1=O [Compound 102, 3-methyl-8-(2-phenylethyl)-4-({4-[3-(trifluoromethyl)phenyl]piperazin-1-yl}carbonyl)-1-oxa-8-azaspiro[4.5]dec-3-en-2-one]	< 0.05 µM
CC1=C(C(=O)N2CCN(c3cccc(C(F)(F)F)c3)CC2)C2(CCN(CCc3ccc(Cl)cc3)CC2)OC1=O [Compound 13, 8-[2-(4-chlorophenyl)ethyl]-3-methyl-4-({4-[3-(trifluoromethyl)phenyl]piperazin-1-yl}carbonyl)-1-oxa-8-azaspiro[4.5]dec-3-en-2-one]	< 0.05 µM
CC1=C(C(=O)N2CCN(c3cccc(Cl)c3)CC2)C2(CCN(Cc3ccccc3)CC2)OC1=O [Compound 110, 8-benzyl-4-{[4-(3-chlorophenyl)piperazin-1-yl]carbonyl}-3-methyl-1-oxa-8-azaspiro[4.5]dec-3-en-2-one]	0.5 to 2 µM
CC1=C(C(=O)N2CCN(c3cccc(Cl)c3)CC2)C2(CCN(C)CC2)OC1=O [Compound 112, 4-{[4-(3-chlorophenyl)piperazin-1-yl]carbonyl}-3,8-dimethyl-1-oxa-8-azaspiro[4.5]dec-3-en-2-one]	0.5 to 2 µM
CCN1CCC2(CC1)OC(=O)C(C)=C2C(=O)N1CCc2ncc(C(F)(F)F)cc2C1 [Compound 85, 8-ethyl-3-methyl-4-{[3-(trifluoromethyl)-7,8-dihydro-1,6-naphthyridin-6(5H)-yl]carbonyl}-1-oxa-8-azaspiro[4.5]dec-3-en-2-one]	< 0.05 µM
CCN1CCC2(CC1)OC(=O)C(C)=C2C(=O)N1CCCN(c2cccc(F)c2)CC1 [Compound 52, 8-ethyl-4-{[4-(3-fluorophenyl)-1,4-diazepan-1-yl]carbonyl}-3-methyl-1-oxa-8-azaspiro[4.5]dec-3-en-2-one]	0.5 to 2 µM
CCN1CCC2(C1)OC(=O)C(C)=C2C(=O)N1CCc2ccc(C(F)(F)F)cc2C1 (centres unmarked) [Compound 42, 7-ethyl-3-methyl-4-{[7-(trifluoromethyl)-3,4-dihydroisoquinolin-2(1H)-yl]carbonyl}-1-oxa-7-azaspiro[4.4]non-3-en-2-one]	< 0.05 µM
CCN1CCC2(CC1)OC(=O)C(C)=C2C(=O)N1CCc2cc(C(F)(F)F)ccc2C1 [Compound 54, 8-ethyl-3-methyl-4-{[6-(trifluoromethyl)-3,4-dihydroisoquinolin-2 (1H)-yl]carbonyl}-1-oxa-8-azaspiro[4.5]dec-3-en-2-one]	< 0.05 µM
CCN1CCC2(CC1)OC(=O)C(C)=C2C(=O)Nc1ccc(-c2cccc(C(F)(F)F)c2)cc1 [Compound 98, 8-ethyl-3-methyl-2-oxo-N-[3'-(trifluoromethyl)biphenyl-4-yl]-1-oxa-8-azaspiro[4.5]dec-3-ene-4-carboxamide]	0.5 to 2 µM

Second part, the molecule after the results:

Ki	Structure (SMILES)
< 0.05 µM	CC1=C(C(=O)N2CCc3ccc(C(F)(F)F)cc3C2)C2(CCN(C3CCOC(C)(C)C3)CC2)OC1=O (centres unmarked) [Compound 35, 8-(2,2-dimethyltetrahydro-2H-pyran-4-yl)-3-methyl-4-{[7-(trifluoromethyl)-3,4-dihydroisoquinolin-2(1H)-yl]carbonyl}-1-oxa-8-azaspiro[4.5]dec-3-en-2-one]
0.05 to 0.1 µM	CCN1CCC2(CC1)OC(=O)C(C)=C2C(=O)N1CCCN(c2cccc(C(F)(F)F)c2)CC1 [Compound 90, 8-ethyl-3-methyl-4-({4-[3-(trifluoromethyl)phenyl]-1,4-diazepan-1-yl}carbonyl)-1-oxa-8-azaspiro[4.5]dec-3-en-2-one]
0.5 to 2 µM	CCN1CCC2(CC1)OC(=O)C(C)=C2C(=O)N1CCN(c2cccc(C)c2)CC1 [Compound 68, 8-ethyl-3-methyl-4-{[4-(3-methylphenyl)piperazin-1-yl]carbonyl}-1-oxa-8-azaspiro[4.5]dec-3-en-2-one]
< 0.05 µM	COc1ccc(CCN2CCC3(CC2)OC(=O)C(C)=C3C(=O)N2CCN(c3cccc(C(F)(F)F)c3)CC2)cc1 [Example 6, 8-[2-(4-methoxyphenyl)ethyl]-3-methyl-4-({4-[3-(trifluoromethyl)phenyl]piperazin-1-yl]carbonyl)-1-oxa-8-azaspiro[4.5]dec-3-en-2-one, dihydrochloride salt]
0.1 to 0.5 µM	CCN1CCC2(CC1)OC(=O)C(C)=C2C(=O)N1CCC(c2cccc(C(F)(F)F)c2)CC1 [Compound 94, 8-ethyl-3-methyl-4-({4-[3-(trifluoromethyl)phenyl]piperidin-1-yl}carbonyl)-1-oxa-8-azaspiro[4.5]dec-3-en-2-one]
0.05 to 0.1 µM	CC1=C(C(=O)N2CCN(c3cccc(C(F)(F)F)c3)CC2)C2(CCN(CCc3ccncc3)CC2)OC1=O [Compound 12, 3-methyl-8-(2-pyridin-4-ylethyl)-4-({4-[3-(trifluoromethyl)phenyl]piperazin-1-yl}carbonyl)-1-oxa-8-azaspiro[4.5]dec-3-en-2-one]
< 0.05 µM	CC1=C(C(=O)N2CCN(c3cccc(C(F)(F)F)c3)CC2)C2(CCN(CC(C)c3ccccc3)CC2)OC1=O (centres unmarked) [Compound 105, 3-methyl-8-(2-phenylpropyl)-4-({4-[3-(trifluoromethyl)phenyl]piperazin-1-yl}carbonyl)-1-oxa-8-azaspiro[4.5]dec-3-en-2-one]
0.1 to 0.5 µM	CCN1CCC2(CC1)OC(=O)C(C)=C2C(=O)N1CCC(c2cccc(C(F)(F)F)c2)C1 (centres unmarked) [Compound 55, 8-ethyl-3-methyl-4-({3-[3-(trifluoromethyl)phenyl]pyrrolidin-1-yl}carbonyl)-1-oxa-8-azaspiro[4.5]dec-3-en-2-one]
0.1 to 0.5 µM	CCN1CCC2(CC1)OC(=O)C(C)=C2C(=O)N1CCc2ccc(F)cc2C1 [Compound 53, 8-ethyl-4-[(7-fluoro-3,4-dihydroisoquinolin-2(1H)-yl)carbonyl]-3-methyl-1-oxa-8-azaspiro[4.5]dec-3-en-2-one]
< 0.05 µM	CCN1CCC2(CC1)OC(=O)C(C)=C2C(=O)N1CCC(Nc2ccc(C(F)(F)F)cc2)C1 (centres unmarked) [Compound 83, 8-ethyl-3-methyl-4-[(3-{[4-(trifluoromethyl)phenyl]amino}pyrrolidin-1-yl)carbonyl]-1-oxa-8-azaspiro[4.5]dec-3-en-2-one]
< 0.05 µM	CCN1CCC2(CC1)OC(=O)C(C)=C2C(=O)N1CCN(c2ccc(Cl)c(C(F)(F)F)c2)CC1 [Compound 82, 4-({4-[4-chloro-3-(trifluoromethyl)phenyl]piperazin-1-yl}carbonyl)-8-ethyl-3-methyl-1-oxa-8-azaspiro[4.5]dec-3-en-2-one]
